Where two headings read alike, the source gives them in different places.

Format in all cases: cell-based
For data set [1], the system named is latent HIV-1-infected ACH-2 cells. In words: HIV reactivation from latent cells: supernatant p24 antigen. The conditions noted are these: ACH-2 cells; for viral production (supernatant p24 antigen levels): day 2, single drug (Figure 1A). On the procedure: (§1) The reactivation of HIV-1 from latently infected cells was determined by the measurement of supernatant p24 antigen and intracellular HIV-1 RNA levels. ACH-2 cells or U1 cells (5 × 10^5 cells/mL) were placed in 96-well plates, and then the cells were incubated with different concentrations of drugs for 24 h to extract RNA and for 48 h to collect the supernatant. The increase in supernatant p24 antigen levels was measured using […] G1200 (Fujirebio, Tokyo, Japan). The total RNA was extracted using an RNeasy Mini Kit (Qiagen, Hilden, Germany), following the manufacturer’s protocols. The cDNA was synthesized using PrimeScript RT Master Mix (Takara Bio, Shiga, Japan), and quantitative real-time PCR analyses for the intracellular HIV-1 RNA were carried out with PowerUp^TM SYBR Green Master Mix (Applied Biosystems, Foster City, CA, United States). The oligonucleotide primers used were as follows: 5′-[…]-3′ (forward) and 5′-[…]-3′ (reverse) for HIV-RNA detection; 5′-[…]-3′ (forward) and 5′-[…]-3′ (reverse) for β-actin. The HIV-RNA expressions were normalized with that of β-actin, which was indicated as the relative quantity, and the increase in HIV-1 RNA levels in the presence of a drug was compared with that without a drug.
(§2) FIGURE 1 (A,B) The increase in viral production from ACH-2 cells (A) and U1 cells (B) was examined by supernatant p24 antigen levels on day 2. (C,D) Changes in the intracellular HIV-1 mRNA levels due to treatment with these drugs in ACH-2 cells (C) and U1 cells (D) after 24 h of incubation.
FIGURE 2 (A) Effect of birinapant when combined with TNF-α. The supernatant p24 levels with birinapant (1∼100 nM) in ACH-2 cell culture on day 2 are shown in white bars, and p24 values with birinapant when combined with TNF-α (10 ng/ml) are shown in black bars. (B) HIV-1 production from ACH-2 cells when reactivated by PEP005 (0.05∼50 nM) for 24 h. (C) Changes in the living cell numbers in the presence of drug(s) on days 1, 3, and 5.

The next data set deals with U937. The data set is described as follows: Cytotoxicity assay (Cytotoxicity LDH Assay Kit). As to conditions: U937 cells, 24 h; read-out: CC50 ± SD against U937. The protocol:
(§3) To determine the cytotoxicity induced by LRAs and its related compounds, cells (5 × 10^5 cells/mL) were cultured in the presence or absence of LRA. After 24 h, cytotoxicity assays were performed using a Cytotoxicity LDH Assay Kit (Dojindo, Kumamoto, Japan) according to the manufacturer’s instructions. The number of living cells with the drug was measured and compared with those without the drug, and data are shown as percentage (%) of control.

For the next data set, the system named is U1. In words: Cytotoxicity assay (Cytotoxicity LDH Assay Kit). The conditions noted are these: U1 cells, 24 h; read-out: CC50 ± SD against U1. On the procedure: as §3
A further data set relates to HL-60. The data set is described as follows: Cytotoxicity assay (Cytotoxicity LDH Assay Kit). As to conditions: HL-60 cells, 24 h; read-out: CC50 ± SD against HL-60. The protocol: as §3
The subject of a further data set is A3.01. In words: Cytotoxicity assay (Cytotoxicity LDH Assay Kit). As to conditions: A3.01 cells, 24 h; read-out: CC50 ± SD against A3.01. On the procedure:
as §3

The test system of another data set is Jurkat. In words: Cytotoxicity assay (Cytotoxicity LDH Assay Kit). The conditions noted are these: Jurkat cells, 24 h; read-out: CC50 ± SD against Jurkat. The protocol:
as §3

Another data set concerns OM10.1. In words: Cytotoxicity assay (Cytotoxicity LDH Assay Kit). As to conditions: OM10.1 cells, 24 h; read-out: CC50 ± SD against OM10.1. On the procedure:
as §3

The test system of the next data set is ACH-2. The data set is described as follows: Cytotoxicity assay (Cytotoxicity LDH Assay Kit). As to conditions: ACH-2 cells, 24 h; read-out: CC50 ± SD against ACH-2. The protocol: as §3
For another data set, the system named is J1.1. The data set is described as follows: Cytotoxicity assay (Cytotoxicity LDH Assay Kit). As to conditions: J1.1 cells, 24 h; read-out: CC50 ± SD against J1.1. The protocol:
as §3

Data set [2] deals with latent HIV-1-infected U1 cells. The data set is described as follows: HIV reactivation from latent cells: supernatant p24 antigen. The conditions noted are these: day 2, single drug (Figure 1B). On the procedure: as §1, §2
The next data set deals with HIV-1 NL4-3. In words: Antiviral assay, HIV-1 NL4-3 in MT-4 cells. The conditions noted are these: MT-4 cells, cultured for 12 days, single drug. The protocol: as §3, with “Antiviral assays using wild type HIV-1 (HIV-1 NL4-3) cells and MT-4 cells were conducted as previously described ([Maeda et al., 2014]; [Takamatsu et al., 2015]). To” for “To”
Supplementary file Data_Sheet_1.PDF: FIGURE S1 The combined effect of an RT inhibitor (EFdA/MK-8591) ([Nakata et al., 2007]; [Kawamoto et al., 2008]; [Maeda et al., 2014]) and PKC activator (PEP005) on the replication of HIV-1 NL4-3 in MT-4 cells. MT-4 cells were infected with HIV-1 NL4-3 in the presence or absence of drug(s), cultured for 12 days, and the supernatant p24 levels were measured. Click here for additional data file.

Data set [3] is described as follows: Cytotoxicity assay (Cytotoxicity LDH Assay Kit). As to conditions: human. The protocol:
as §3

A further data set deals with cIAP. The data set is described as follows: Determination of cIAP expression (western blotting). As to conditions: ACH-2 cells, 24 h; birinapant 50 nM, PEP005 5 nM, TNF-α 10 ng/ml. The protocol:
ACH-2 cells (1 × 10^6 cells/ml) were treated with different concentrations of the drug for 24 h, and the cells were washed twice with PBS. Cells were homogenized by CelLytic M Cell Lysis Reagent (Sigma-Aldrich, St. Louis, MO, United States) containing a protease inhibitor cocktail (Nacalai Tesque, Kyoto, Japan) and were incubated at room temperature (RT) for 15 min. The cells were then centrifuged at 13,000 rpm for 15 min, and the supernatant of the whole cell lysate was collected. The bicinchoninic acid (BCA) protein assay (Thermo Scientific, Rockford, IL, United States) was used to measure the actual protein amount in the treated and untreated cells. The protein extracts were separated through sodium dodecyl sulfate polyacrylamide gel electrophoresis (SDS-PAGE) and then were blotted onto a Trans Blot Turbo polyvinylidene difluoride (PVDF) membrane (Bio-Rad, Hercules, CA, United States). Protein bands were visualized using 3,3′,5,5′-tetramethylbenzidine (TMB) solution (Wako Pure Chemical). The sources of the antibodies were as follows: c-IAP1 (D5G9), c-IAP2 (58C7), and XIAP (3B6) were purchased from Cell Signaling Technology (Danvers, MA, United States); β-actin (C4) was purchased from Santa Cruz Biotechnology.
Supplementary file Data_Sheet_5.PDF: FIGURE S5 Western blotting (WB) analysis for IAP family proteins in ACH-2 cells. Cells were exposed to birinapant (50 nM) in the presence or absence of PEP005 (5 nM), with TNF-α (10 ng/ml) co-treatment for 24 h, and cell lysates were used for WB analysis. Click here for additional data file.
On the technique in general: Immunoblotting shows a protein as a band on a membrane.

The mark [4] stands for this setting: A3.01 cells, read-out: CC50 ± SD against A3.01.
Setting [5] is: ACH-2 cells, read-out: CC50 ± SD against ACH-2.
Setting [6] is: HL-60 cells, read-out: CC50 ± SD against HL-60.
The mark [7] stands for this setting: J1.1 cells, read-out: CC50 ± SD against J1.1.
Setting [8] is: Jurkat cells, read-out: CC50 ± SD against Jurkat.
Where [9] appears, read: OM10.1 cells, read-out: CC50 ± SD against OM10.1.
The mark [10] stands for this setting: U1 cells, read-out: CC50 ± SD against U1.
Where [11] appears, read: U937 cells, read-out: CC50 ± SD against U937.

What is called CC50 is the concentration that lowers cell viability or growth by half. On to `FC(F)(F)Oc1ccc2nc(-c3ccc(OCCOCCOc4ccc(-c5nc6ccc(OC(F)(F)F)cc6[nH]5)nc4)cn3)[nH]c2c1` [AI-10-49], for which the “viral production (supernatant p24 antigen levels)” value (from here on “viral production”) in data set [1] and in data set [2] was “failed to increase the p24 levels” each time. The CC50 is greater than 100 µM in the data set with U937; greater than 100 µM with U1; greater than 100 µM in the data set with HL-60; greater than 100 µM with A3.01; 1.1 ± 0.07 µM in the data set on Jurkat; greater than 100 µM in the data set on OM10.1. Moreover, the figures for the cytotoxic concentration (CC50) in the data set with ACH-2 and with J1.1 were 41 ± 10 µM and greater than 100 µM, respectively.
In the case of `C#C[C@]1(CO)O[C@@H](n2cnc3c(N)nc(F)nc32)C[C@@H]1O` [EFdA/MK-8591, 4′-ethynyl-2-fluoro-2′-deoxyadenosine], the “replication of HIV-1 NL4-3 (supernatant p24)” value in the data set with HIV-1 NL4-3 is given as “potently inhibited the replication”.
As to `CCCCOc1nc(N)c2c(n1)N(Cc1cccc(CN3CCCC3)c1)CC(=O)N2` [GS-9620], the “viral production” value in data set [1] and in [2] was “failed to increase the p24 levels” throughout. The cytotoxic concentration (CC50) at 24 h in [3] (setting [4]) was greater than 100 µM; in [3] (setting [5]), greater than 100 µM; in data set [3] (setting [6]), greater than 100 µM; in data set [3] (setting [7]), 35 ± 1.3 µM; in [3] (setting [8]), 23 ± 0.3 µM; in [3] (setting [9]), greater than 100 µM. Also, the half-maximal cytotoxic concentration (CC50) at 24 h in [3] (setting [10]) and in [3] (setting [11]) was greater than 100 µM in each case.
For `CCNC(=O)C[C@@H]1N=C(c2ccc(Cl)cc2)c2cc(OC)ccc2-n2c(C)nnc21` [GSK525762A], the “viral production” value in data set [1] and in [2] was “increased viral production” throughout.
Take `Cc1sc2c(c1C)C(c1ccc(Cl)cc1)=N[C@@H](CC(=O)OC(C)(C)C)c1nnc(C)n1-2` [JQ-1]: the “viral production” value in data set [1] and in [2] was “increased viral production” each time.
As for `O=C(CCCCCCC(=O)Nc1ccccc1)NO` [SAHA], the “viral production” value in [1] and in [2] was “increased viral production” in each case. Besides, the CC50 at 24 h in data set [3] (setting [4]) was greater than 100 µM; in data set [3] (setting [5]), 9 ± 1.2 µM; in data set [3] (setting [6]) it was greater than 100 µM; in [3] (setting [7]), greater than 100 µM; in [3] (setting [8]), 90 ± 2 µM; in [3] (setting [9]), greater than 100 µM. In addition, the CC50 at 24 h in data set [3] (setting [10]) and in data set [3] (setting [11]) was greater than 100 µM in each case.
For Ro5-3335, the “viral production” value in [1] and in data set [2] was “failed to increase the p24 levels” throughout. For the same molecule, the cytotoxic concentration (CC50) in the data set with U937, with U1, in the data set on HL-60, in the data set with A3.01, in the data set with Jurkat and with OM10.1 was greater than 100 µM throughout. In addition, the CC50 with ACH-2 and in the data set with J1.1 was greater than 100 µM each time.
On to TNF-α, for which the “increase of supernatant HIV-1 (p24) levels compared with unstimulated cells” value in [1] (TNF-α 10 ng/ml, day 2 (Figure 2A)) is greater than 20 fold. Further, the “supernatant HIV-1 p24 levels” value in [1] (after 24 h, PEP005 5 nM and higher (Figure 2B)) was “reactivated and increased the supernatant HIV-1 p24 levels”. In the data set with cIAP, the “cIAP expression (western blotting)” value is on record as “upregulation of cIAP-1 (and cIAP-2)”.

The values above are taken from paper PMC6156138, “Combination of a Latency-Reversing Agent With a Smac Mimetic Minimizes Secondary HIV-1 Infection in vitro” (Frontiers in Microbiology, 2018).
